What was measured:
[1] = target: T1, LFA-1 binding to immobilized ICAM-1 (Homo sapiens, UniProt P05107+P20701); experiment: LFA-1/ICAM-1 Protein-Protein Assay (solid-phase ELISA); settings: 5dICAM-Ig coated plates, membrane-bound LFA-1 from transfected 293 cells
T1 construct: made in house; host or cells: transfected 293 cells (LFA-1)
Method: LFA-1/ICAM-1 Protein-Protein Assay
LFA-1/ICAM-1 antagonist activity, defined as the ability to block LFA-1 binding to immobilized ICAM-1, was quantitated using a solid-phase ELISA. Typically, fusion protein consisting of the entire extracellular domain of human ICAM-1 and the Fc domain of human IgG (5dICAM-Ig) was coated onto 96-well microtiter plates (0.15 μg in 100 μL PBS) overnight at 4° C. The plates were then blocked with 150 μL of 1% BSA/1 mM MnCl2/0.14 M NaCl/20 mM HEPES, pH 7.2 for 1 h at 37° C. and washed 3 times (150 μL each) with Wash Buffer (50 mM Tris, pH 7.4/100 mM NaCl/1 mM MnCl2/0.05% Tween 20). Stock solutions (100 μM in 100% DMSO) of test compounds were diluted 50 fold with 150 μL of Binding Buffer (0.05% BSA/0.05% Tween 20/1 mM MnCl2/0.14 M NaCl/20 mM HEPES, pH 7.2) plus 10% DMSO. A series of 1:4 dilutions were performed to achieve a concentration range of 0.12 nM-2 μM. Fifty μL per well of each dilution was added to the ICAM-1 coated plates, followed by 50 μL per well of membrane-bound LFA-1 (280 ng/mL in Binding Buffer) derived from transfected 293 cells. The plates were shaken vigorously for 1 min (room temperature) and gently for 2 h (37° C.). After incubation, the plates were washed 3 times (150 μL each) with Wash Buffer. Mouse anti-human integrin β2 monoclonal antibody was added (100 μL/well, 1 μg/ml in Binding Buffer) and allowed to incubate for 1 h (37° C.) with gentle agitation. The plates were then washed 3 times with Wash Buffer. HRP-conjugated goat anti-mouse IgG (100 μL/well, 1:1500 dilution in Binding Buffer) was added to each well, followed by incubation for 1 h (37° C.) and concluded by three washes (150 μL each) with Wash Buffer. TMB solution (100 μL per well) was added for color development (10 min). The reaction was stopped by the addition of 100 μL of 1M H3PO4 to each well. The plates were then read at 450 nm.

[2] = system: T lymphocyte proliferation (murine spleen cells); experiment: Mixed Lymphocyte Reaction (MLR), one-way; assay type: cell-based, mice; settings: C57B1/6 spleen cells with irradiated BALB/c spleen cells, tritiated thymidine incorporation, 3 days
Excerpt: Mixed Lymphocyte Reaction (MLR)
Admixture of murine spleen cells from two different inbred strains of mice induces proliferation of T lymphocytes. The magnitude of T cell proliferation depends on the extent of disparity in the major histocompatibility antigens between the two strains. Splenic T lymphocytes from both strains proliferate due to alloantigen recognition, a process for which the interaction of ICAM-1 on antigen-presenting cells with LFA-1 on lymphocytes is necessary. The ability of antagonists to inhibit T lymphocyte proliferation following recognition of alloantigens was assessed in a one-way MLR, where cells from one strain were irradiated to permit measurement of the proliferative response of cells from the other strain. Spleen cells were washed three times in tissue culture medium (TCM; see below). Fifty microliters of a spleen cell suspension (prepared at 10×10^6 cells/ml in TCM) obtained from C57B1/6 mice were added to an equal number of lethally-irradiated (2000 rads) spleen cells obtained from BALB/c mice in a 96-well U-bottom tissue culture plate (Costar, 3799). One hundred microliters of serial dilutions of antagonists or TCM were added to the spleen cell mixture. The total volume in each well was 200 μL. TCM was RPMI1640 containing 10% heat-inactivated fetal bovine serum, […] L-glutamine, 100 Units/ml each of penicillin and streptomycin and 5×10^−5 M 2-mercaptoethanol. Dilutions of antagonists were prepared in TCM. Plates were incubated in 5% CO2 for 3 days. On the third day, 0.5 μCi of tritiated thymidine (10 μCi/mL) was added to all the wells. Cells were harvested 6 h later on a 96-well plate harvester and the amount of tritiated thymidine incorporated was assessed in a liquid scintillation counter.

[3] = Mus musculus, T-lymphocyte, light or radiation study, 72 h

T1 sequence (P20701 26-1170): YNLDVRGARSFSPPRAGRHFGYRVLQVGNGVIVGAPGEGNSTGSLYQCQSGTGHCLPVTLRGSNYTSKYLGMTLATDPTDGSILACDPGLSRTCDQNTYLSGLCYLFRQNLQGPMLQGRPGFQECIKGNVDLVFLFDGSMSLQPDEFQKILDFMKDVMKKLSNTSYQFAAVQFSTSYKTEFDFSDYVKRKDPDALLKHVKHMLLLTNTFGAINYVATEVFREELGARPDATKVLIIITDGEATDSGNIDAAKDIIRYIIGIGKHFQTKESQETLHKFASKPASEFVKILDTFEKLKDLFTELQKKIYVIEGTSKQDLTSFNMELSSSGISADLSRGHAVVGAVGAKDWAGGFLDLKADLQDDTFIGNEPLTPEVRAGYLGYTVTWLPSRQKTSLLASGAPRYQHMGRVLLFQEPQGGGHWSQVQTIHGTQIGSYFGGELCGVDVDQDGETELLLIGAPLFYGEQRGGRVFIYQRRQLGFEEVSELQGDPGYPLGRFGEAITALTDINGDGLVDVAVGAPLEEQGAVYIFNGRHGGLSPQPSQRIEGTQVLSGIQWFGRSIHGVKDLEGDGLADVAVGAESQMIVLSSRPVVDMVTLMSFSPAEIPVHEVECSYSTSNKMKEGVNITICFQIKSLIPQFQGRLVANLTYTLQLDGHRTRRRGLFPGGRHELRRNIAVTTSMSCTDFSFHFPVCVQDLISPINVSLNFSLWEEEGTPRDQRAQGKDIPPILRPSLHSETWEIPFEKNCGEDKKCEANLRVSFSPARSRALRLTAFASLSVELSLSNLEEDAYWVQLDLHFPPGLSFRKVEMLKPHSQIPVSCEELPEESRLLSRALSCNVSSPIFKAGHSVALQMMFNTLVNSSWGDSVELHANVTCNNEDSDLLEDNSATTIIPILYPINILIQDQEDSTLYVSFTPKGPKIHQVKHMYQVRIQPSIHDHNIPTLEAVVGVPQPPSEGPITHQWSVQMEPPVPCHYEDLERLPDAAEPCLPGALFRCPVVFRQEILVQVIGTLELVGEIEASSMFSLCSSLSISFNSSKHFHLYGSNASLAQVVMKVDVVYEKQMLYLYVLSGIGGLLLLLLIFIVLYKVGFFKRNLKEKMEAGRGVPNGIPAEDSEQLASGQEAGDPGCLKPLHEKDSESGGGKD
T1 sequence (P05107 23-769): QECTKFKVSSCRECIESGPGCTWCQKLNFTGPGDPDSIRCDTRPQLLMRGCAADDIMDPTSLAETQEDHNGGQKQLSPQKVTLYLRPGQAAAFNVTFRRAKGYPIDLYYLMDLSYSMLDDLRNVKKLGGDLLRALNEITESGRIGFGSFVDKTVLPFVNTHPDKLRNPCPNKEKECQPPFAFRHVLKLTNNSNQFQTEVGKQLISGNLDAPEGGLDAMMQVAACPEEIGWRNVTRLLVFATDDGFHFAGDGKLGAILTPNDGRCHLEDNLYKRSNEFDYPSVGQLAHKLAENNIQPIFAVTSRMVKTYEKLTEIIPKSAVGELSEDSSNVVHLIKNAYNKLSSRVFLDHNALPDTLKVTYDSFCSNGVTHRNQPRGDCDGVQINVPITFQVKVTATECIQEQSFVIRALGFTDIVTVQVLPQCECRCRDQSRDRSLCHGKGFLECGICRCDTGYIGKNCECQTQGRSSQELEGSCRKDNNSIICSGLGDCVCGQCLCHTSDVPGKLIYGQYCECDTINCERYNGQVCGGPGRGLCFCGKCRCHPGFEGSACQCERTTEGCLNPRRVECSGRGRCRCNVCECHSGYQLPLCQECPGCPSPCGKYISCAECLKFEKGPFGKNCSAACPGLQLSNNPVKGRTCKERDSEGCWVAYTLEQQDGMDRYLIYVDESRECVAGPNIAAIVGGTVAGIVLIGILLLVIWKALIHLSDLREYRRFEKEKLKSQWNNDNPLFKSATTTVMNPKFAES

| SMILES | IC50 [1] | IC50 [2, 3] | also measured |
| --- | --- | --- | --- |
| O=C(O)/C(=C/c1ccc2nsnc2c1)NC(=O)c1ccc(C(=O)NCc2cccc(O)c2)cc1Cl [Example 247] | 0.002 µM | 5.15 µM | – |
| Cc1nc(C)c(/C=C(\NC(=O)c2c(C)cc(C(=O)NCc3cccc(O)c3)cc2C)C(=O)O)s1 [Example 248] | 0.00396 µM | 24 µM | – |
| Cc1nc(C)c(/C=C(\NC(=O)c2ccc(C(=O)NCc3cccc4[nH]ccc34)cc2Br)C(=O)O)s1 [Example 249] | 0.00578 µM | 16 µM | – |
| Cc1nc(C)c(/C=C(\NC(=O)c2c(C)cc(C(=O)N[C@H](C)c3cccc4ccccc34)cc2C)C(=O)O)s1 [Example 251] | 0.0205 µM | 20 µM | – |
| C[C@@H](NC(=O)c1cc(Cl)c(C(=O)N/C(=C\c2cnc3ccccc3c2)C(=O)O)c(Cl)c1)c1cccc2ccccc12 [Example 252] | 0.00268 µM | 2.5 µM | – |
| Cc1cc(C(=O)NCc2cc(F)cc(F)c2)cc(C)c1C(=O)N/C(=C\c1cnc2ccccc2c1)C(=O)O [Example 253] | 0.00654 µM | 8.1 µM | – |
| Cc1nc(C)c(/C=C(\NC(=O)c2c(C)cc(C(=O)NCc3cc(F)cc(F)c3)cc2C)C(=O)O)s1 [Example 254] | 0.11 µM | 95 µM | – |
| O=C(O)/C(=C/c1cnc2ccccc2c1)NC(=O)c1ccc(C(=O)NCc2cccc3[nH]ccc23)cc1Br [Example 255] | 0.00582 µM | 14.8 µM | – |
| Cc1nc(C)c(/C=C(\NC(=O)c2ccc(C(=O)NCc3cccc(O)c3)cc2Br)C(=O)O)s1 [Example 258] | 0.00233 µM | 2.05 µM | IC50 ([1]; mono sodium salt): 0.00201 µM; IC50 ([2]; listed as 258^b): 2.74 µM |
| CN(C)c1ncc(/C=C(\NC(=O)c2ccc(C(=O)NCc3cccc(O)c3)cc2Br)C(=O)O)s1 [Example 260] | 0.00077 µM | 3 µM | – |
| O=C(O)/C(=C/c1cnc(N2CCOCC2)s1)NC(=O)c1ccc(C(=O)NCc2cccc(O)c2)cc1Br [Example 261] | 0.0396 µM | 26 µM | – |
| Cc1nnsc1/C=C(\NC(=O)c1ccc(C(=O)NCc2cccc(O)c2)cc1Br)C(=O)O [Example 263] | 0.00686 µM | 2.85 µM | – |
| O=C(O)/C(=C/c1csc2ccccc12)NC(=O)c1ccc(C(=O)NCc2cccc(O)c2)cc1Br [Example 264] | 0.0042 µM | 13 µM | – |
| O=C(O)/C(=C/c1cnc(Cl)s1)NC(=O)c1ccc(C(=O)NCc2cccc(O)c2)cc1Cl [Example 266] | 0.0027 µM | 9 µM | – |
| O=C(O)/C(=C/c1ccc2ncsc2c1)NC(=O)c1ccc(C(=O)NCc2cccc3[nH]ccc23)cc1Br [Example 267] | 0.00637 µM | 6.38 µM | – |
| O=C(O)/C(=C/c1nccs1)NC(=O)c1ccc(C(=O)NCc2cccc(O)c2)cc1Br [Example 268, (Z)-2-[[2-Bromo-4-[[(3-hydroxybenzyl)amino]carbonyl]benzoyl]amino]-3-(thiazol-2-yl)propenoic Acid] | 0.0106 µM | 9 µM | – |
| O=C(O)/C(=C/c1ccccc1)NC(=O)c1ccc(C(=O)NCc2cccc(O)c2)cc1Br [Example 269] | 0.00431 µM | 2.2 µM | – |
| O=C(O)/C(=C/c1cccc2ccccc12)NC(=O)c1ccc(C(=O)NCc2cccc(O)c2)cc1Br [Example 270] | 0.0203 µM | 20 µM | – |

| SMILES | IC50 [1] | IC50 [2, 3] | also measured |
| --- | --- | --- | --- |
| O=C(O)/C(=C/c1ccccc1O)NC(=O)c1ccc(C(=O)NCc2cccc(O)c2)cc1Br [Example 272] | 0.0014 µM | 1.5 µM | – |
| O=C(O)/C(=C/c1ccccn1)NC(=O)c1ccc(C(=O)NCc2cccc(O)c2)cc1Br [Example 273] | 0.0054 µM | 1.4 µM | – |
| O=C(O)/C(=C/c1ccc2ccccc2c1)NC(=O)c1ccc(C(=O)NCc2cccc(O)c2)cc1Br [Example 274] | 0.00062 µM | 1.65 µM | – |
| O=C(O)/C(=C/c1cnc2ccccc2c1)NC(=O)c1ccc(C(=O)NCc2cccc(O)c2)cc1Br [Example 277] | 0.00053 µM | 0.356 µM | – |
| O=C(O)/C(=C/c1cnc[nH]1)NC(=O)c1ccc(C(=O)NCc2cccc(O)c2)cc1Br [Example 278] | 0.002 µM | 1.45 µM | – |
| O=C(O)/C(=C/c1cccnc1)NC(=O)c1ccc(C(=O)NCc2cccc(O)c2)cc1Br [Example 279] | 0.0062 µM | 1.3 µM | – |
| O=C(O)/C(=C/c1ccncc1)NC(=O)c1ccc(C(=O)NCc2cccc(O)c2)cc1Br [Example 280] | 0.005 µM | 0.86 µM | – |
| Cc1noc(C)c1/C=C(\NC(=O)c1ccc(C(=O)NCc2cccc(O)c2)cc1Br)C(=O)O [Example 281] | 0.244 µM | 14.5 µM | – |
| O=C(O)/C(=C/c1ccccc1)NC(=O)c1ccc(C(=O)NCc2cccc(O)c2)cc1Cl [Example 282] | 0.00446 µM | 1.9 µM | – |
| O=C(O)/C(=C/c1cnc2ccccc2c1)NC(=O)c1ccc(C(=O)NCc2cccc(O)c2)cc1Cl [Example 283] | 0.00079 µM | 0.37 µM | – |
| O=C(O)/C(=C/c1ccc2[nH]nnc2c1)NC(=O)c1ccc(C(=O)NCc2cccc(O)c2)cc1Br [Example 285] | – | 0.235 µM | IC50 ([1]; disodium salt): 0.00114 µM; IC50 ([1]; trifluoroacetate salt): 0.00034 µM; IC50 ([2]; listed as 285^c): 0.19 µM |
| O=C(O)/C(=C/c1ccc2[nH]nnc2c1)NC(=O)c1ccc(C(=O)NCc2cccc3[nH]ccc23)cc1Br [Example 286] | 0.00074 µM | 1.2 µM | – |
| Nc1ncc(/C=C(\NC(=O)c2ccc(C(=O)NCc3cccc(O)c3)cc2Cl)C(=O)O)s1 [Example 287] | 0.00065 µM | 1.4 µM | – |
| O=C(O)/C(=C/c1nc[nH]n1)NC(=O)c1ccc(C(=O)NCc2cccc(O)c2)cc1Br [Example 290, (Z)-2-[[2-Bromo-4-[[(3-hydroxybenzyl)amino]carbonyl]benzoyl]amino]-3-(1,2,4triazol-3-yl)propenoic Acid] | 0.0134 µM | 1.3 µM | – |
| Cc1cc(C(=O)NCc2cccc(O)c2)cc(Cl)c1C(=O)N/C(=C\c1ccc2[nH]nnc2c1)C(=O)O [Example 291, (Z)-3-(1H-Benzotriazol-5-yl)-2-[[2-chloro-4-[[(3-hydroxybenzyl)amino]carbonyl]-6-methylbenzoyl]amino]propenoic Acid] | 0.0004 µM | 0.515 µM | – |
| Cc1cc(C(=O)NCc2cccc(O)c2)cc(Cl)c1C(=O)N/C(=C\c1cnc2ccccc2c1)C(=O)O [Example 292, (Z)-2-[[2-Chloro-4-[[(3-hydroxybenzyl)amino]carbonyl]-6-methylbenzoyl]amino]-3-(quinolin-3-yl)propenoic Acid] | 0.00054 µM | 0.925 µM | – |
| Cc1cc(C(=O)NCc2cccc(O)c2)cc(Cl)c1C(=O)N/C(=C\c1ccccc1)C(=O)O [Example 293, (Z)-2-[[2-Chloro-4-[[(3-hydroxybenzyl)amino]carbonyl]-6-methylbenzoyl]amino]-3-phenylpropenoic Acid] | 0.00129 µM | 7.1 µM | – |
| O=C(O)/C(=C/c1cnc2ccccc2c1)NC(=O)c1ccc(C(=O)CCc2cccc(O)c2)cc1Cl [Example 294, (Z)-2-[[2-Chloro-4-[3-(3-hydroxyphenyl)-1-oxopropan-1-yl]benzoyl]amino]-3-(quinolin-3-yl)propenoic Acid] | 0.00238 µM | 13 µM | – |

Reference: patent US6515124B2, “Dehydroamino acids” (Hoffman-La Roche Inc., priority 2000, dated 2003)
